Measurements from patent US20250059205A1, “Heterocyclic Compounds and Methods of Use” (AMGEN INC., priority 2021, published 2025).

Tests used:
[1] = target: His-tagged KRAS G12D protein (Homo sapiens, UniProt P01116, G12D); assay: KRAS G12D TR-FRET Assay; assay type: binding
[2] = target: GDP-bound KRAS protein (aa 1-169), containing both G12D and C118A amino acid substitutions (Homo sapiens, UniProt P01116, C118A/G12D); assay: KRAS G12D Coupled Nucleotide Exchange Assay; assay type: biochemical; settings: 2 h compound pre-incubation
Description: Following compound pre-incubation, purified SOS protein (aa 564-1049) and GTP (Roche 10106399001) were added to the assay wells and incubated for an additional 30 min. […] The assay plates were then read on a PerkinElmer EnVision Multilabel Reader, using AlphaScreen® technology, and data were analyzed using a 4-parameter logistic model to calculate IC50 values.

[3] = test system: Phosphorylation of ERK1/2 in A-427 cells; assay: Phospho-ERK1/2 MSD Assay (A-427 cells); assay type: cell-based; settings: Homo sapiens, A-427, 2 h, 2 h treatment, read-out: p-ERK (A427 cells) IC50
Summary of the method: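 ERK1/2 phosphorylation measured by Meso Scale whole-cell lysate assay after A-427 cells were exposed to a titration of compound for 2 h at 37 °C.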

[4] = test system: Phosphorylation of ERK1/2 in AsPC-1 cells; assay: Phospho-ERK1/2 MSD Assay (AsPC-1 cells); assay type: cell-based; settings: Homo sapiens, ASPC1, 2 h, 2 hours treatment, read-out: p-ERK (AsPC-1 cells) IC50
Summary of the method: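 Read-out: MSD electrochemiluminescent detection of phosphorylated ERK1/2 in whole-cell lysates, fitted to a 4-parameter logistic curve for IC50. Prior to lysis, AsPC-1 cells (25,000 per well) received a 2 h compound dose-response at 37 °C.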

Sequence of His-tagged KRAS G12D protein (P01116 1-188 isoform P01116-2 G12D): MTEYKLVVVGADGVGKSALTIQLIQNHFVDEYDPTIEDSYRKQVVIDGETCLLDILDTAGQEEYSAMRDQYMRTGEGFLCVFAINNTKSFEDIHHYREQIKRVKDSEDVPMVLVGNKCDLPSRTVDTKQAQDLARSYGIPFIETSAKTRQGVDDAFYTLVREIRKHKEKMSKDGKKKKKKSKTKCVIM
Sequence of GDP-bound KRAS protein (aa 1-169), containing both G12D and C118A amino acid substitutions (P01116 1-169 isoform P01116-2 G12D/C118A): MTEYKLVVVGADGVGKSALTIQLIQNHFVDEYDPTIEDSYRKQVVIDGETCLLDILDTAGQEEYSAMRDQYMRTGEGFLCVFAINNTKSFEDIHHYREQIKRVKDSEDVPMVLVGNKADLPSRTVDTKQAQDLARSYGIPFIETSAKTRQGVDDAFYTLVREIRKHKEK

Row | SMILES | IC50 [1] | Avg 2 h Coupled Exchange IC50 [2] | IC50 [3] | IC50 [4]
1 | CCc1c(F)ccc2cc(O)cc(-c3cc4nc(OC[C@@]56CCCN5C[C@H](F)C6)nc(N5C[C@H]6CC[C@@H](C5)N6)c4cc3F)c12 [Example 83, 4-(4-((1R,5S)-3,8-diazabicyclo[3.2. 1]octan-3-yl)-6-fluoro-2-(((2R,7aS)-2-fluorotetrahydro-1H-pyrrolizin-7a(5H)-yl)methoxy)quinazolin-7-yl)-5-ethyl-6-fluoronaphthalen-2-ol] | 3 nM | 2 nM | 28 nM | 77 nM
2 | Oc1cc(-c2c(F)cc3c(N4C[C@H]5CC[C@@H](C4)N5)nc(OC[C@@]45CCCN4C[C@H](F)C5)nc3c2F)c2c(F)c(F)ccc2c1 [Example 84, 4-(4-((1R,5S)-3,8-diazabicyclo[3.2. 1]octan-3-yl)-6,8-difluoro-2-(((2R,7aS)-2-fluorotetrahydro-1H-pyrrolizin-7a(5H)-yl)methoxy)quinazolin-7-yl)-5,6-difluoronaphthalen-2-ol] | 4 nM | 4 nM | 5 nM | 22 nM
3 | Oc1cc(-c2cc3nc(OC[C@@]45CCCN4C[C@H](F)C5)nc(N4C[C@H]5CC[C@@H](C4)N5)c3cc2F)c2c(Cl)cccc2c1 [Example 85, 4-(4-((1R,5S)-3,8-diazabicyclo[3.2. 1]octan-3-yl)-6-fluoro-2-(((2R,7aS)-2-fluorotetrahydro-1H-pyrrolizin-7a(5H)-yl)methoxy)quinazolin-7-yl)-5-chloronaphthalen-2-ol] | 4 nM | 1 nM | 64 nM | 273 nM
4 | Oc1cc(-c2c(Cl)cc3c(N4C[C@H]5CC[C@@H](C4)N5)nc(OC[C@@]45CCCN4C[C@H](F)C5)nc3c2F)c2c(Cl)cccc2c1 [Example 86, 4-(4-((1R,5S)-3,8-diazabicyclo[3.2. 1]octan-3-yl)-6-chloro-8-fluoro-2-(((2R,7aS)-2-fluorotetrahydro-1H-pyrrolizin-7a(5H)-yl)methoxy)quinazolin-7-yl)-5-chloronaphthalen-2-ol] | 4 nM | 2 nM | 54 nM | 149 nM
5 | CCc1c(F)ccc2cc(O)cc(-c3ccc4c(N5C[C@H]6CC[C@@H](C5)N6)nc(OC[C@@]56CCCN5C[C@H](F)C6)nc4c3F)c12 [Example 87, 4-(4-((1R,5S)-3,8-diazabicyclo[3.2. 1]octan-3-yl)-8-fluoro-2-(((2R,7aS)-2-fluorotetrahydro-1H-pyrrolizin-7a(5H)-yl)methoxy)quinazolin-7-yl)-5-ethyl-6-fluoronaphthalen-2-ol] | 7 nM | 10 nM | 6 nM | 16 nM
6 | CCc1c(F)ccc2cc(O)cc(-c3c(F)cc4c(N5C[C@H]6CC[C@@H](C5)N6)nc(OC[C@@]56CCCN5C[C@H](F)C6)nc4c3F)c12 [Example 88, 4-(4-((1R,5S)-3,8-diazabicyclo[3.2. 1]octan-3-yl)-6,8-difluoro-2-(((2R,7aS)-2-fluorotetrahydro-1H-pyrrolizin-7a(5H)-yl)methoxy)quinazolin-7-yl)-5-ethyl-6-fluoronaphthalen-2-ol] | 4 nM | 4 nM | 3 nM | 9 nM
7 | CCc1c(F)ccc2cc(O)cc(-c3c(F)cc4c(N5C[C@H]6CC[C@@H](C5)N6)nc(OC[C@@H]5C[C@@H](F)CN5C)nc4c3F)c12 [Example 89, 4-(4-((1R,5S)-3,8-diazabicyclo[3.2. 1]octan-3-yl)-6,8-difluoro-2-(((2S,4R)-4-fluoro-1-methylpyrrolidin-2-yl)methoxy)quinazolin-7-yl)-5-ethyl-6-fluoronaphthalen-2-ol] | 4 nM | 4 nM | 80 nM | 137 nM
